“And” between values parts separate entries of the source, which are not always exact repeats. Equal values may be shown once.
Test system: male Balb/c mice
Experiment: Effect on increasing erythrocyte of normal mice (reticulocyte count)
Type: in vivo
Set-up: unit not given here
Method: Biological Example 3: Effect of the Compounds of the Present Invention on Increasing Erythrocyte of Normal Mice
80 male Balb/c mice were divided into 11 groups, with 8 animals for each drug group, 10 animals for blank control group. Drug group: AKB-6548, 100 mg/kg, oral administration, once a day×3; FG-4592, 25 mg/kg, oral administration, once a day×3; EPO, 100 IU/kg, Day 1 and Day 3, subcutaneous injection, as positive control groups. Each of the compounds of the present invention was orally administrated at 25 mg/kg, once a day×3. Four hours after the last administration, orbital blood of all animals were collected and treated with EDTA-K2 anticoagulant, and reticulocytes (RETIC) were counted with a blood cell automated analyzer.

[1] = 100 mg/kg oral, once a day × 3, four hours after the last administration
[2] = 25 mg/kg oral, once a day × 3, four hours after the last administration
[3] = 100 IU/kg subcutaneous injection, Day 1 and Day 3, four hours after the last administration

Row | Compound | RETIC, Average [2] | RETIC, individual mice [2] | also measured
1 | O=C(O)CNC(=O)c1ncc(-c2cccc(Cl)c2)cc1O [AKB-6548-A, reference compound] | – | – | RETIC, Average [1]: 4.75; RETIC, individual mice [1]: 6.1 and 4 (2×) and 4.2 (2×) and 4.9 and 5.3 (2×)
2 | Cc1nc(C(=O)NCC(=O)O)c(O)c2ccc(Oc3ccccc3)nc12 [Compound 1, 2-(5-hydroxy-8-methyl-2-phenoxy-1,7-naphthyridine-6-formamido) acetic acid] | 4.73 | 4.4 and 5.2 and 4.8 and 5 and 5.3 and 4.1 (2×) and 4.9 | –
3 | Cc1nc(C(=O)NCC(=O)O)c(O)c2ccc(Oc3ccc4c(c3)OCCO4)nc12 [Compound 12, 2-(2-((2,3-dihydrobenzo[b][1,4]dioxo-6-yl)oxy)-5-hydroxy-8-methyl-1,7-naphthyridine-6-formamido) acetic acid] | 5.24 | 5.4 and 5 (3×) and 6 and 5.6 (2×) and 4.3 | –
4 | COc1ccc(Oc2ccc3c(O)c(C(=O)NCC(=O)O)nc(C)c3n2)cc1 [Compound 14, 2-(5-hydroxy-2-(4-methoxyphenoxy)-8-methyl-1,7-naphthyridine-6-formamido) acetic acid] | 5.73 | 6.1 and 6.6 and 5.8 (2×) and 6.5 and 5.7 and 4.4 and 4.9 | –
5 | Cc1nc(C(=O)NCC(=O)O)c(O)c2ccc(Oc3ccccc3)cc12 [FG-4592-A, reference compound] | 3.73 | 3.8 (2×) and 4 (2×) and 3.5 and 4.4 and 3.4 and 3.6 | –
6 | EPO: erythropoietin, glycoprotein hormone; exogenous positive control given subcutaneously | – | – | RETIC, Average [3]: 3.73; RETIC, individual mice [3]: 5.9 and 2.5 and 2.2 (2×) and 2.6 and 4.3 and 5.1 and 5
